Experimental data as given in patent US10781224B2, “Bis(oxymethyl)phosphinic acid and biogenic metal salts thereof as regulators of plant growth and development” (priority 2016, dated 2020).

Tested on: winter wheat (Vershin variety)
Assay: Winter wheat seed treatment with BHMPA salts: germinating power (length and mass of roots and sprouts)
Format: in vivo
Method: Experimental versions—soaking seeds in BHMPA solutions and solutions of BHMPA Ca, Mg, Na, Co, Mn, Cu, and Zn salts at 1·10^−6-1·10^−12% concentrations (doses). The studies were conducted in laboratory in Petri dishes; seed bed—two layers of filter paper. 50 seeds soaked in water (control) and in the solutions of the tested compounds (experimental) were placed into each dish. Wheat, corn, and rice seeds were exposed for one hour.
Seed germination energy and rate were calculated in percent as an arithmetic mean of the four experimental results (germination energy on the 4th day, wheat germination on the 8th day, rice and corn germination—on the 7th day). Germination was determined based on the germinating power indicators (length of the roots and sprouts and their wet and dry mass per 100 shoots).
The effect of pre-sowing seed treatment with the claimed BHMPA salts of biogenic metals was studied on winter wheat (Vershin variety), corn (Krasnodar 385 MV variety), and rice (Diamant variety).
The above data describe the seed viability only at the initial stage of germination, while the germination ability at the later stage of germination is defined by the initial germinating power. The method for the determination of the germinating power comprises measuring the height of the sprouts and primary roots, as well as the biomass and the dry mass thereof per 100 seedlings. [M. A. Kartuzova. Initial Germinating Power as Method of Biological Assessment of Seed Quality. Selection and Seed Farming, #2, 1953].

[1] = comparative study, 1·10^−10% solution

Structure (SMILES): O.O.O=P([O-])(CO)CO.O=P([O-])(CO)CO.[Co+2] [Co-salt, Cobalt BHMPA Salt]
- Length, root (1·10^−6% solution): 6.0 cm
- Length, root, + % to control (1·10^−6% solution): −5%
- Length, sprout (1·10^−6% solution): 5.1 cm
- Length, sprout, + % to control (1·10^−6% solution): −4%
- Mass, dry, root (1·10^−6% solution): 0.43 g/100 plantlings
- Mass, dry, root, + % to control (1·10^−6% solution): −6.5%
- Mass, dry, sprout (1·10^−6% solution): 0.41 g/100 plantlings
- Mass, dry, sprout, + % to control (1·10^−6% solution): −9%
- Mass, wet, root (1·10^−6% solution): 2.99 g/100 plantlings
- Mass, wet, root, + % to control (1·10^−6% solution): 3.5%
- Mass, wet, sprout (1·10^−6% solution): 3.30 g/100 plantlings
- Mass, wet, sprout, + % to control (1·10^−6% solution): −3.5%
- Length, root (1·10^−7% solution): 6.3 cm
- Length, root, + % to control (1·10^−7% solution): 0%
- Length, sprout (1·10^−7% solution): 5.4 cm
- Length, sprout, + % to control (1·10^−7% solution): 2%
- Mass, dry, root (1·10^−7% solution): 0.50 g/100 plantlings
- Mass, dry, root, + % to control (1·10^−7% solution): 9%
- Mass, dry, sprout (1·10^−7% solution): 0.45 g/100 plantlings
- Mass, dry, sprout, + % to control (1·10^−7% solution): 0%
- Mass, wet, root (1·10^−7% solution): 3.06 g/100 plantlings
- Mass, wet, root, + % to control (1·10^−7% solution): 6%
- Mass, wet, sprout (1·10^−7% solution): 3.47 g/100 plantlings
- Mass, wet, sprout, + % to control (1·10^−7% solution): 1.5%
- Length, root (1·10^−8% solution): 6.4 cm
- Length, root, + % to control (1·10^−8% solution): 1.6%
- Length, sprout (1·10^−8% solution): 5.5 cm
- Length, sprout, + % to control (1·10^−8% solution): 4%
- Mass, dry, root (1·10^−8% solution): 0.54 g/100 plantlings
- Mass, dry, root, + % to control (1·10^−8% solution): 17%
- Mass, dry, sprout (1·10^−8% solution): 0.53 g/100 plantlings
- Mass, dry, sprout, + % to control (1·10^−8% solution): 18%
- Mass, wet, root (1·10^−8% solution): 3.29 g/100 plantlings
- Mass, wet, root, + % to control (1·10^−8% solution): 14%
- Mass, wet, sprout (1·10^−8% solution): 3.74 g/100 plantlings
- Mass, wet, sprout, + % to control (1·10^−8% solution): 9%
- Length, root (1·10^−9% solution): 6.5 cm
- Length, root, + % to control (1·10^−9% solution): 3%
- Length, sprout (1·10^−9% solution): 5.7 cm
- Length, sprout, + % to control (1·10^−9% solution): 7.5%
- Mass, dry, root (1·10^−9% solution): 0.55 g/100 plantlings
- Mass, dry, root, + % to control (1·10^−9% solution): 19.5%
- Mass, dry, sprout (1·10^−9% solution): 0.57 g/100 plantlings
- Mass, dry, sprout, + % to control (1·10^−9% solution): 27%
- Mass, wet, root (1·10^−9% solution): 3.35 g/100 plantlings
- Mass, wet, root, + % to control (1·10^−9% solution): 16%
- Mass, wet, sprout (1·10^−9% solution): 4.04 g/100 plantlings
- Mass, wet, sprout, + % to control (1·10^−9% solution): 18%
- Length, root (1·10^−10% solution): 6.6 cm
- Length, root, + % to control (1·10^−10% solution): 5%
- Length, sprout (1·10^−10% solution): 6.1 cm
- Length, sprout, + % to control (1·10^−10% solution): 15%
- Mass, dry, root (1·10^−10% solution): 0.56 g/100 plantlings
- Mass, dry, root, + % to control (1·10^−10% solution): 22%
- Mass, dry, sprout (1·10^−10% solution): 0.67 g/100 plantlings
- Mass, dry, sprout, + % to control (1·10^−10% solution): 49%
- Mass, wet, root (1·10^−10% solution): 3.57 g/100 plantlings
- Mass, wet, root, + % to control (1·10^−10% solution): 23.5%
- Mass, wet, sprout (1·10^−10% solution): 4.18 g/100 plantlings
- Mass, wet, sprout, + % to control (1·10^−10% solution): 22%
- Length, root (1·10^−11% solution): 6.5 cm
- Length, root, + % to control (1·10^−11% solution): 3%
- Length, sprout (1·10^−11% solution): 5.9 cm
- Length, sprout, + % to control (1·10^−11% solution): 11%
- Mass, dry, root (1·10^−11% solution): 0.54 g/100 plantlings
- Mass, dry, root, + % to control (1·10^−11% solution): 17%
- Mass, dry, sprout (1·10^−11% solution): 0.56 g/100 plantlings
- Mass, dry, sprout, + % to control (1·10^−11% solution): 24%
- Mass, wet, root (1·10^−11% solution): 3.33 g/100 plantlings
- Mass, wet, root, + % to control (1·10^−11% solution): 15%
- Mass, wet, sprout (1·10^−11% solution): 3.78 g/100 plantlings
- Mass, wet, sprout, + % to control (1·10^−11% solution): 10.5%
- Length, root (1·10^−12% solution): 6.2 cm
- Length, root, + % to control (1·10^−12% solution): −1.5%
- Length, sprout (1·10^−12% solution): 5.4 cm
- Length, sprout, + % to control (1·10^−12% solution): 2%
- Mass, dry, root (1·10^−12% solution): 0.52 g/100 plantlings
- Mass, dry, root, + % to control (1·10^−12% solution): 13%
- Mass, dry, sprout (1·10^−12% solution): 0.48 g/100 plantlings
- Mass, dry, sprout, + % to control (1·10^−12% solution): 7%
- Mass, wet, root (1·10^−12% solution): 3.06 g/100 plantlings
- Mass, wet, root, + % to control (1·10^−12% solution): 6%
- Mass, wet, sprout (1·10^−12% solution): 3.49 g/100 plantlings
- Mass, wet, sprout, + % to control (1·10^−12% solution): 2%
- Length, root [1]: 10.4 cm
- Length, root, + % to control [1]: 20%
- Length, sprout [1]: 7.4 cm
- Length, sprout, + % to control [1]: 19%
- Mass, dry, root [1]: 0.68 g/100 plantlings
- Mass, dry, root, + % to control [1]: 10%
- Mass, dry, sprout [1]: 0.55 g/100 plantlings
- Mass, dry, sprout, + % to control [1]: 8%
- Mass, wet, root [1]: 5.97 g/100 plantlings
- Mass, wet, root, + % to control [1]: 65%
- Mass, wet, sprout [1]: 5.16 g/100 plantlings
- Mass, wet, sprout, + % to control [1]: 30%
